In patent US4112219A, “Acyl derivatives of antibiotic BM123γ” (American Cyanamid Company, priority 1977, dated 1978):
Where “and” joins values, the source holds several entries; their conditions need not be identical. Equal values may be shown once.

System: Escherichia coli US311
Assay: in vivo activity against Escherichia coli US311 in mice (systemic lethal infection, single subcutaneous dose)
Design: species or system Escherichia coli US311 in Carworth Farms CF-1 mice
Description: The starting material for the acylation procedure has been defined hereinabove as antibiotic BM123γ having formula (IV). When R' is structure (II) in formula (IV), then the antibiotic is BM123γ1 and when R' is structure (III) in formula (IV), then the antibiotic is BM123γ2. […] The preparation and properties of trans-BM123γ1 and trans-BM123γ2 are disclosed in U.S. Pat. No. 4,007,167 whereas the preparation and properties of cis-BM123γ1 and cis-BM123γ2 are set forth in U.S. Pat. No. 4,018,972. The term cis-BM123γ refers to a mixture in any proportion of cis-BM123γ1 and cis-BM123γ2 whereas the term trans-BM123γ refers to a mixture in any proportion of trans-BM123γ1 and trans-BM123γ2. The expression antibiotic BM123γ refers to either cis-BM123γ or trans-BM123γ. […] These new substances show high in vivo antibacterial activity in mice against Escherichia coli US311 when administered by a single subcutaneous dose to groups of Carworth Farms CF-1 mice, weight about 20 grams, infected intraperitoneally with a lethal dose of this bacteria in a 10^-3 trypticase soy broth TSP dilution of a 5 hour TSP blood culture. In Table I below is set forth the in vivo activity of typical products of this invention (prepared by the procedure of Example 1 from the indicated activated ester which was prepared by the procedure of Example 2 or Example 3) against Escherichia coli US311 in mice. The activity is expressed in terms of the ED50 or the dose in mg./kg. of body weight required to protect 50% of the mice against E. coli. The derivative name in Table I indicates whether cis-BM123 or trans-BM123 was employed as starting material.

[1] = infected intraperitoneally with lethal dose of E. coli US311

| Substance | ED50 (dose required to protect 50% of the mice against E. coli) [1] | ED50 (dose required to protect 50% of the mice against E. coli) (infected intraperitoneally with lethal dose of E. coli US311, listed as α-Phenyoxypropionyl-trans-BM123γ) |
| --- | --- | --- |
| 1,4-Thiapyran(2)carbonyl-trans-BM123γ | 2.0 mg./kg. of Body Weight | – |
| 1-Naphthoyl-trans-BM123γ | 0.5 mg./kg. of Body Weight | – |
| 2,3,6-Trichlorobenzoyl-trans-BM123γ | 2.0 mg./kg. of Body Weight | – |
| 2,4-Dichlorobenzoyl-trans-BM123γ | 0.5 mg./kg. of Body Weight and 1.0 mg./kg. of Body Weight | – |
| 2,5-Dibromobenzoyl-trans-BM123γ | 2.0 mg./kg. of Body Weight | – |
| 2,6-Dimethoxybenzoyl-trans-BM123γ | 2.0 mg./kg. of Body Weight | – |
| 2-Furyl-trans-BM123γ | 1.0 mg./kg. of Body Weight | – |
| 2-Methylpropionyl-trans-BM123γ | 2.0 mg./kg. of Body Weight | – |
| 2-Napthyloxyacetyl-trans-BM123γ | 0.5 mg./kg. of Body Weight | – |
| 2-Thienyl-trans-BM123γ | 1.0 mg./kg. of Body Weight | – |
| 3,4,5-Trimethoxybenzoyl-trans-BM123γ | 2.0 mg./kg. of Body Weight | – |
| 3,4-Dichlorobenzoyl-trans-BM123γ | 0.5 mg./kg. of Body Weight and 1.0 mg./kg. of Body Weight | – |
| 3,4-Dimethylbenzoyl-trans-BM123γ | 2.0 mg./kg. of Body Weight | – |
| 3,5-Dichlorobenzoyl-trans-BM123γ | 0.5 mg./kg. of Body Weight | – |
| 3,5-Dinitrobenzoyl-trans-BM123γ | 1.0 mg./kg. of Body Weight | – |
| 3-Methoxy-2-naphthoyl-trans-BM123γ | 2.0 mg./kg. of Body Weight | – |
| 4-(p-Chlorophenylsulfonyl)-benzoyl-trans-BM123γ | 2.0 mg./kg. of Body Weight | – |
| 4-Carbethoxy-3,5-dimethoxybenzoyl-trans-BM123γ | 2.0 mg./kg. of Body Weight | – |
| 4-Ethyl-2,3-diketopiperazine-1-carbonyl-trans-BM123γ | 2.0 mg./kg. of Body Weight | – |
| 4-Fluoro-1-naphthoyl-trans-BM123γ | 1.0 mg./kg. of Body Weight | – |
| 4-Oxy-4H-thiapyran-3-yl-carbonyl-trans-BM123γ | 2.0 mg./kg. of Body Weight | – |
| 8-Bromo-1-napthoyl-trans-BM123γ | 1.5 mg./kg. of Body Weight | – |
| Benzoyl-trans-BM123γ | 4.0 mg./kg. of Body Weight | – |

| Substance | ED50 (dose required to protect 50% of the mice against E. coli) [1] | ED50 (dose required to protect 50% of the mice against E. coli) (infected intraperitoneally with lethal dose of E. coli US311, listed as α-Phenyoxypropionyl-trans-BM123γ) |
| --- | --- | --- |
| Carbethoxyformyl-trans-BM123γ | 1.0 mg./kg. of Body Weight | – |
| Chlorodiphenylacetyl-trans-BM123γ | 2.0 mg./kg. of Body Weight | – |
| Cinnamoyl-trans-BM123γ | 2.0 mg./kg. of Body Weight | – |
| Cyclopropylcarbonyl-trans-BM123γ | 2.0 mg./kg. of Body Weight | – |
| Decanoyl-trans-BM123γ | 2.0 mg./kg. of Body Weight | – |
| Methoxyacetyl-trans-BM123γ | 2.0 mg./kg. of Body Weight | – |
| Pentachlorobenzoyl-trans-BM123γ | 2.0 mg./kg. of Body Weight | – |
| Pentafluorobenzoyl-trans-BM123γ | 0.5 mg./kg. of Body Weight | – |
| Phenoxyacetyl-trans-BM123γ | 1.0 mg./kg. of Body Weight | – |
| Propionyl-trans-BM123γ | 4.0 mg./kg. of Body Weight | – |
| Pyridine-n-oxide-2-carbonyl-trans-BM123γ | 2.0 mg./kg. of Body Weight | – |
| Trichloroacetyl-trans-BM123γ | 1.0 mg./kg. of Body Weight | – |
| Trimethylacetyl-trans-BM123γ | 1.0 mg./kg. of Body Weight | – |
| m-Bromobenzoyl-trans-BM123γ | 0.75 mg./kg. of Body Weight | – |
| m-Fluorobenzoyl-trans-BM123γ | 1.0 mg./kg. of Body Weight | – |
| m-Hydroxybenzoyl-trans-BM123γ | 1.5 mg./kg. of Body Weight | – |
| m-Mercaptobenzoyl-trans-BM123γ | 2.0 mg./kg. of Body Weight | – |
| m-Methylbenzoyl-trans-BM123γ | 1.0 mg./kg. of Body Weight | – |
| m-Phenoxybenzoyl-trans-BM123γ | 1.5 mg./kg. of Body Weight | – |
| o-Acetoxybenzoyl-trans-BM123γ | 2.0 mg./kg. of Body Weight | – |
| o-Benzoylbenzoyl-trans-BM123γ | 2.0 mg./kg. of Body Weight | – |
| o-Benzylbenzoyl-trans-BM123γ | 2.0 mg./kg. of Body Weight | – |
| o-Fluorobenzoyl-trans-BM123γ | 1.0 mg./kg. of Body Weight | – |

| Substance | ED50 (dose required to protect 50% of the mice against E. coli) [1] | ED50 (dose required to protect 50% of the mice against E. coli) (infected intraperitoneally with lethal dose of E. coli US311, listed as α-Phenyoxypropionyl-trans-BM123γ) |
| --- | --- | --- |
| o-Hydroxybenzoyl-trans-BM123γ | 8.0 mg./kg. of Body Weight | – |
| o-Mercaptobenzoyl-trans-MB123γ | 2.0 mg./kg. of Body Weight | – |
| o-Methylbenzoyl-trans-BM123γ | 2.0 mg./kg. of Body Weight and 1.0 mg./kg. of Body Weight | – |
| p-Acetaminobenzoyl-trans-BM123γ | 2.0 mg./kg. of Body Weight | – |
| p-Acetylbenzoyl-trans-BM123γ | 2.0 mg./kg. of Body Weight | – |
| p-Biphenylcarbonyl-trans-BM123γ | 2.0 mg./kg. of Body Weight | – |
| p-Chlorobenzoyl-trans-BM123γ | 4.0 mg./kg. of Body Weight | – |
| p-Cyanobenzoyl-trans-BM123γ | 4.0 mg./kg. of Body Weight | – |
| p-Dimethylaminobenzoyl-trans-BM123γ | 2.0 mg./kg. of Body Weight | – |
| p-Ethoxybenzoyl-trans-BM123γ | 2.0 mg./kg. of Body Weight | – |
| p-Fluorobenzoyl-trans-BM123γ | 1.0 mg./kg. of Body Weight | – |
| p-Formylbenzoyl-trans-BM123γ | 2.0 mg./kg. of Body Weight | – |
| p-Hydroxybenzoyl-trans-BM123γ | 2.0 mg./kg. of Body Weight | – |
| p-Methoxybenzoyl-trans-BM123γ | 1.0 mg./kg. of Body Weight | – |
| p-Methylthiobenzoyl-trans-BM123γ | 4.0 mg./kg. of Body Weight | – |
| p-Nitrobenzoyl-trans-BM123γ | 0.5 mg./kg. of Body Weight | – |
| p-Sulfamylbenzoyl-trans-BM123γ | 0.5 mg./kg. of Body Weight | – |
| p-Trifluoromethoxybenzoyl:trans-BM123γ | 1.0 mg./kg. of Body Weight | – |
| p-Trifluoromethylbenzoyl-trans-BM123γ | 4.0 mg./kg. of Body Weight | – |
| p-t-Butylbenzoyl-trans-BM123γ | 4.0 mg./kg. of Body Weight | – |
| α-Bromopropionyl-trans-BM123γ | 2.0 mg./kg. of Body Weight | – |
| α-Phenoxypropionyl-trans-BM123γ | 2.0 mg./kg. of Body Weight and 1.0 mg./kg. of Body Weight | 2.0 mg./kg. of Body Weight |
